pIC50: −log10 of the molar value. Where two headings read alike, the source gives them in different places. Numbered stars: 1 amine (or outer) side, 2 acyl side, 3 side chain; on linkers, the order of the positions; unused ones are H or OH. Bridge positions count the residues as written; N and C are the ends. Square brackets hold non-standard residues; d marks the D form. Peptide text beside a SMILES is read from it. N(2-Aminoethyl)Gly = O=C(CN(CCN[*:3])[*:1])[*:2]; CO = O=C([*:1])[*:2]; Nlys = NCCCCNCC(=O)O
Columns and labels:
[1] = system: U937 macrophages-VCAM-1 (α4β1, αMβ2, α3β1, α6β1); experiment: Adhesion of U937 macrophages to immobilized VCAM-1; format: cell-based, human
Protocol: Cell adhesion assay was carried out as previously described[47] with minor modifications. The day before the experiment, each well was coated with VCAM-1 (3 mg/mL) immobilized on the 96-well plate in PBS by overnight incubation at 4 °C. Thereafter, nonspecific binding was blocked by incubating the wells with 1% (w/v) bovine serum albumin (BSA) in Hank’s Balanced Salt Solution (HBSS) containing 5 mM MgCl2 at room temperature for 1 h before use. The cells were labeled by incubation with 12.5 μM 5-chloromethylfluorescein diacetate (CMFDA) in HBSS without 1% BSA at 37 °C for 30 min. The labeled cells were then centrifuged at 1000 rpm and washed twice with HBSS containing 1% BSA to remove excess CMFDA. Labeled cells (about 1 × 10^5 cells/well) were plated on each well in the presence or absence of visabrons and incubated at 37 °C for 60 min. Unbound cells were removed by washing the wells three times with 1% (w/v) BSA in HBSS, and bound cells were lysed by the addition of 0.5% Triton X-100 (diluted in DDW). The fluorescence in each well was quantified with a SPECTRAFluor Plus plate reader (Tecan), at λex = 485 nm and λem = 530 nm. To determine the number of adhered cells from the fluorescence values, a standard curve was generated by serial dilution of known numbers of CMFDA-labeled cells.

[2] = Single-dose toxicity: blood cell counting and biochemistry analyses; format: in vivo, C57BL/6 male mice
C-Raf = biological target: T1, C-Raf (Homo sapiens, UniProt P04049, Y340D/Y341D); experiment: PhosphoSens CSox-based kinase assay, C-Raf; format: biochemical; conditions: 1 mM, but not 0.1 mM; Figure 7
T1 construct: purchased Thermo PV3805
Protocol: (§1) Kinase activity was measured using the PhosphoSenstechnology (AssayQuant Technologies Inc., Marlborough, MA) as detailed in the Supporting Information. […]
(§2) Visabron c (4-4) safety by in vitro evaluation using PhosphoSens - CSox based kinase assays:
(§3) A powerful method was used to measure the activity of recombinant protein kinases using a homogeneous and continuous (kinetic) format, where the level of chelation-enhanced fluorescence (CHEF) that is directly proportional to the amount of phosphorylated, real-time sensors consisting of sulfonamido-oxine (Sox) chromophore, linked to a peptide or protein substrates of selective kinases 6. […]
(§4) Kinase activity measurements: Kinase activity was measured continuously using the PhosphoSens® technology (AssayQuant Technologies Inc., Marlborough, MA) according to the manufacturers’ recommendations. This one-step homogeneous assay format uses chelation -enhanced fluorescence via optimized substrate sensors containing the unnatural fluorogenic amino -acid Sox. […]
(§5) Final reaction conditions : Protein kinase activity was determined in 54 mM HEPES, pH 7.5, 1 mM ATP, 1.2 mM DTT, 0.012% Brij-35, 0.52 mM EGTA, 10 mM MgCl2, 1% glycerol, 0.2mg/ml BSA, and 15 μM Sox -based sensor. […]

JAK3 = biological target: T2, JAK3 (Homo sapiens, UniProt P52333); experiment: PhosphoSens CSox-based kinase assay, JAK3; format: biochemical; conditions: 1 mM, but not 0.1 mM; Figure 7
T2 construct: purchased Carna 08-046
Protocol: as §1, §2, §3, §4, §5

[3] = U937 treated with PMA (10 ng/mL) for 24 h, read-out: IC50 U937 macrophages-VCAM-1 PMA
[4] = untreated U937, read-out: IC50 U937 macrophages-VCAM-1 control
[5] = blood 24 hours after i.v. 500 mg/kg, n=5

T1 sequence (P04049 whole entry Y340D/Y341D): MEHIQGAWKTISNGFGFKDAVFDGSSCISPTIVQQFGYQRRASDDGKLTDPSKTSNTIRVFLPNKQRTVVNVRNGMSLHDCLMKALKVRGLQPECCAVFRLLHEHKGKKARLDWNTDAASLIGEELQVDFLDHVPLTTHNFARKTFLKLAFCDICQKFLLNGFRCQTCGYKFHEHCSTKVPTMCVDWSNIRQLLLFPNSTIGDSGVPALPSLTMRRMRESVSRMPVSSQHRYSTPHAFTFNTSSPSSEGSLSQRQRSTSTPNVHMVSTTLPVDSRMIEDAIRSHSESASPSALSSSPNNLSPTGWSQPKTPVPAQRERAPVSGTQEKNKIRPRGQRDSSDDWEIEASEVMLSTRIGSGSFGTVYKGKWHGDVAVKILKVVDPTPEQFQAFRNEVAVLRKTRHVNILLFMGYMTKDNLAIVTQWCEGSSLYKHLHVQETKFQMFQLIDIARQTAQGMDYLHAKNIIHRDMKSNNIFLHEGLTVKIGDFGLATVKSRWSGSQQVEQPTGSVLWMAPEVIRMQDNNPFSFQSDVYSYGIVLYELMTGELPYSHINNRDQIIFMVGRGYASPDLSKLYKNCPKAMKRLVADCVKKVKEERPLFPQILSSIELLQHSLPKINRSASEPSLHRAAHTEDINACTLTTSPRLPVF
T2 sequence (P52333 whole entry): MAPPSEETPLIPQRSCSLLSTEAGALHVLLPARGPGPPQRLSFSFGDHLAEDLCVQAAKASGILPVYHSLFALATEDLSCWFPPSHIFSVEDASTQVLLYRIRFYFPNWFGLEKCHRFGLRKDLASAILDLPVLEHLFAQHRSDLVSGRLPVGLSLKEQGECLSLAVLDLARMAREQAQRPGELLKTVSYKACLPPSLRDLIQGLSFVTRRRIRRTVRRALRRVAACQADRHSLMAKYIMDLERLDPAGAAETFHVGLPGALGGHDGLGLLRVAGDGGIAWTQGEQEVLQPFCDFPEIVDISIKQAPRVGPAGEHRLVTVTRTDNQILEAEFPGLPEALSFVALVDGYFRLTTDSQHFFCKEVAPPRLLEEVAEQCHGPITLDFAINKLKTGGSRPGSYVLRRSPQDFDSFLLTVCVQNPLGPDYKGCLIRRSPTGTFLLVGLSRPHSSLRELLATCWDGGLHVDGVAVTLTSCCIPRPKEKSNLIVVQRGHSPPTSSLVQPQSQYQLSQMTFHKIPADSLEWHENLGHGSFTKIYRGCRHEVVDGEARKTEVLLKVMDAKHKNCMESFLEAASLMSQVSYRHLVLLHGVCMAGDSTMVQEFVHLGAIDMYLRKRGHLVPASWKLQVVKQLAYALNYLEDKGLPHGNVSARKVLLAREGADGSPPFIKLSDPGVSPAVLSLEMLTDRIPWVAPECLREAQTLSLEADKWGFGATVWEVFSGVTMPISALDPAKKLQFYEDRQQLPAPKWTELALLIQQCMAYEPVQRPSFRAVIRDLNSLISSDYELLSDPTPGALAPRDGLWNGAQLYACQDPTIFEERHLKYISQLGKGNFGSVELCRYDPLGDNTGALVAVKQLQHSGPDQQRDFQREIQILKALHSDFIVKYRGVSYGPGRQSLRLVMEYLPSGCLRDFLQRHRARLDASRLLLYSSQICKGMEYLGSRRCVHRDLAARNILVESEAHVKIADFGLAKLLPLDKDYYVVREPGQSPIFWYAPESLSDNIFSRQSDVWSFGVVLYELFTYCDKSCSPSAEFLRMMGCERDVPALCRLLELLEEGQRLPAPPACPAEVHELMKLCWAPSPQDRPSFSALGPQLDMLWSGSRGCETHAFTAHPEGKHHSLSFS

CSCC[C@@H]1NC(=O)[C@H]([C@@H](C)O)NC(=O)CN(C(=O)[C@@H](N)CCCCN)CCNC(=O)NCCN(CC(=O)N[C@@H](CC(C)C)C(N)=O)C(=O)[C@H](CC(=O)O)NC(=O)[C@H](CC(C)C)NC1=O [visabron c (2–2)] (H-K[N(2-Aminoethyl)Gly]TMLD[N(2-Aminoethyl)Gly]L-NH2; linker 2-7 via CO)
pIC50 [1, 3]: 4.80 | pIC50 [1, 4]: 4.28

CSCC[C@@H]1NC(=O)[C@H]([C@@H](C)O)NC(=O)CN(C(=O)[C@@H](N)CCCCN)CCCCNC(=O)NCCCCN(CC(=O)N[C@@H](CC(C)C)C(N)=O)C(=O)[C@H](CC(=O)O)NC(=O)[C@H](CC(C)C)NC1=O [visabron c (4–4)] (H-K[Nlys]TMLD[Nlys]L-NH2; linker 2-7 via CO)
Acute tolerability, single dose ([2]; 24 h after i.v. injection, C57BL/6 male mice): 500 mg/kg | Blood count and electrolytes vs control mice ([2]; 24 hours from i.v. injection, dose printed 250 mg/kg in this block): No significant differences | ALP [2, 5]: 84±7 U/L | ALT [2, 5]: 41±4 U/L | AST [2, 5]: 92±11 U/L | Albumin [2, 5]: 2.8±0.2 gr/dL | BUN [2, 5]: 14 ± 3.2 mg/dL | Calcium [2, 5]: 9.8 ± 1.2 mg/dL | Chloride [2, 5]: 105 ± 9.2 mmol/L | Cholesterol [2, 5]: 105 ± 8.6 mg/dL | Creatinine [2, 5]: 0.3 ± 0.07 mg/dL | Glucose [2, 5]: 279 ± 31 mg/dL | HCT [2, 5]: 45±2.5% | HGB [2, 5]: 14.8 ± 0.5 g/dL | MCH [2, 5]: 14.8 ± 0.6 pg | MCHC [2, 5]: 29 ± 1.3 g/dL | MCV [2, 5]: 48 ± 2.5 fL | MPV [2, 5]: 5 ± 0.9 fL | RBC [2, 5]: 9.0±0.9 m/ µL | RDW [2, 5]: 17.1±0.4% | WBC [2, 5]: 7.9±0.8 k/µL | inhibition at 1000 µM (C-Raf): 25 to 40% | inhibition at 1000 µM (JAK3): 25 to 40% | pIC50 [1, 3]: 5.00 | pIC50 [1, 4]: 4.96
